Ten molecules from ChEMBL document CHEMBL1153391 (J Med Chem, 2009) can be followed below.

For orientation: Ki means a measure of affinity in units of concentration, obtained from inhibition or displacement. As a reminder, the IC50 is the concentration needed to halve the response being measured. A higher IC50 goes with a need for much substance. One may read the Papp as the rate of passage across a membrane or cell layer, normalised by area and donor concentration. Broadly, the Papp A→B is how fast a substance crosses the layer from the apical side. In general, Papp B→A refers to how fast a substance crosses the layer from the basolateral side.

The target in one series is Procathepsin L (Homo sapiens, UniProt P07711). As to the kind of experiment: Inhibition of cathepsin L.
Chain of Procathepsin L (P07711 whole entry): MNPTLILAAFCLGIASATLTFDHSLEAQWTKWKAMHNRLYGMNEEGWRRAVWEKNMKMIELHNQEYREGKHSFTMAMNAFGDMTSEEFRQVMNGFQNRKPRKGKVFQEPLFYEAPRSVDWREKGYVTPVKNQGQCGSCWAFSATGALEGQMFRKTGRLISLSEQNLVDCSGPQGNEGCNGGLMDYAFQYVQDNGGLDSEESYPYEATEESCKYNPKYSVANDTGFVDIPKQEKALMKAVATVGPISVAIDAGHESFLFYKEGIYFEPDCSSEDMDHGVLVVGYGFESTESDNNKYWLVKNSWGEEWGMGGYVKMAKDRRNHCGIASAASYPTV
The target in the next series is Cathepsin B (Homo sapiens, UniProt P07858). In words: Inhibition of cathepsin B.
A short description of series [1]: Inhibition of Plasmodium falciparum falcipain-2.
The subject of the next series is Plasmodium falciparum. As to the kind of experiment: Antiplasmodial activity against Plasmodium falciparum FCBR. Format: functional, organism-based.
Series [2] in a line: Apparent permeability across human Caco-2 cells. It counts as ADME, cell-based. In general terms: Caco-2 monolayers are a common model of the intestinal barrier.
Series [3] in a line: Cytotoxicity against human HEK293T cells. It counts as cell-based. As to conditions: HEK-293T.
The nature of series [4]: Cytotoxicity against mouse J774.1 cells. It counts as cell-based.
Series [5] can be described thus: Cytotoxicity against mouse DC.
Series [6] can be described thus: Apparent permeability from apical to basolateral side of human Caco-2 cells.
Series [7] in a line: Apparent permeability from basolateral to apical side of human Caco-2 cells.

`CN(C)C(=O)/C=C/[C@H](CCc1ccccc1)NC(=O)CN1C(=O)[C@@H](COC(=O)Nc2ccc(Cl)cc2C(F)(F)F)N=C(c2ccccc2)c2ccccc21`: the Ki amounted to 7.4 µM on Procathepsin L, 6.4 µM on Cathepsin B and 0.076 µM in series [1].

In the case of `COC(=O)/C=C/[C@H](CCc1ccccc1)NC(=O)CN1C(=O)[C@@H](COC(=O)Nc2ccc(Cl)cc2C(F)(F)F)N=C(c2ccccc2)c2ccccc21`, the results for the Ki on Procathepsin L and at Cathepsin B were 2.7 µM and 13.7 µM, respectively.

Turning to `CC(=O)/C=C/CNC(=O)CN1C(=O)[C@@H](COC(=O)Nc2ccc(Cl)cc2C(F)(F)F)N=C(c2ccccc2)c2ccccc21`, the values for the inhibition constant (Ki) on Procathepsin L and at Cathepsin B were 5.9 µM and 6 µM, respectively. This molecule also registered an IC50 with Plasmodium falciparum of 9.3 µM.

Take `CC(C)C[C@H](NC(=O)[C@H]1O[C@@H]1C(=O)O)C(=O)NCCCCN=C(N)N` [E-64]: in series [1], the affinity corresponds to a Ki of 0.29 µM.

Turning to `CC[C@]1(O)C[C@@H]2CN(CCc3c([nH]c4ccccc34)[C@@](C(=O)OC)(c3cc4c(cc3OC)N(C)[C@H]3[C@@](O)(C(=O)OC)[C@H](OC(C)=O)[C@]5(CC)C=CCN6CC[C@]43[C@@H]65)C2)C1` [VINBLASTINE], the Papp in series [2] was 0.51 ×10⁻⁶ cm/s.

Turning to `N#C/C=C/CNC(=O)CN1C(=O)[C@@H](COC(=O)Nc2ccc(Cl)cc2C(F)(F)F)N=C(c2ccccc2)c2ccccc21`, the values for the Ki (on Procathepsin L; on Cathepsin B; in series [1]) were 3.2 µM, 9.9 µM and 0.19 µM, respectively. This molecule showed an IC50 in the series on Plasmodium falciparum of 36.1 µM.

Regarding `COC(=O)/C=C/CNC(=O)CN1C(=O)[C@@H](COC(=O)Nc2ccc(Cl)cc2C(F)(F)F)N=C(c2ccccc2)c2ccccc21`, the figures for the Ki (at Procathepsin L; at Cathepsin B; in series [1]) were 8.4 µM, 7.3 µM and 0.017 µM, respectively. The Papp in [2] is 3.82 ×10⁻⁶ cm/s. Moreover, the concentration for half-maximal inhibition (IC50) was found to be 31.2 µM in series [3], 31.3 µM in series [4], 30.4 µM in series [5] and 12 µM in the series on Plasmodium falciparum.

With `CN/C(=N/CCSCc1nc[nH]c1C)NC#N` [CIMETIDINE], the Papp A→B in series [6] stood at 0.56 ×10⁻⁶ cm/s. Also, the Papp B→A in series [7] amounted to 1.5 ×10⁻⁶ cm/s.

With `CN(C)C(=O)/C=C/CNC(=O)CN1C(=O)[C@@H](COC(=O)Nc2ccc(Cl)cc2C(F)(F)F)N=C(c2ccccc2)c2ccccc21`, the figures for the Ki (on Procathepsin L; at Cathepsin B; in [1]) were 1.9 µM, 0.85 µM and 0.076 µM, respectively. Besides, the concentration for half-maximal inhibition (IC50) in the series on Plasmodium falciparum was more than 100 µM.

For the molecule `CC(=O)/C=C/[C@H](CCc1ccccc1)NC(=O)CN1C(=O)[C@@H](COC(=O)Nc2ccc(Cl)cc2C(F)(F)F)N=C(c2ccccc2)c2ccccc21`, the figures for the Ki on Procathepsin L and at Cathepsin B were 7.5 µM and 8.4 µM, respectively.
